# Reference: US20260265251A1 (priority 2023, published 2026)
# Tested on: SK-MEL-3 cells
# Test: SK-MEL-3 cell proliferation assay
# Type: cell-based
# Settings: Homo sapiens, SK-MEL3, 72 h, read-out: SK-MEL-3 IC50
row,Compound,IC50 [nM]
1,"N#Cc1ccc(N2CCc3nc4[nH]c(=O)[nH]c4cc3C2)cc1F [Example 53, 7-(3-fluoro-4-cyanophenyl)-1,3,5,6,7,8-hexahydro-2H-imidazo[4,5-b][1,6]naphthyridin-2-one]",9.6

# Same assay, conditions: Homo sapiens, SK-MEL3; SK-MEL-3 cells, 72 hours, CellTiter-Glo; read-out: SK-MEL-3 IC50
row,Compound,IC50 [nM]
1,"Cc1ccc(-c2ccc3nc4[nH]c(=O)[nH]c4cc3c2Cl)cc1 [Example 1, 8-chloro-7-(p-tolyl)-1,3-dihydro-2H-imidazo[4,5-b]quinolin-2-one]",0.4
2,"Cc1ccc(-c2ccc3nc4c(cc3c2Cl)CC(=O)N4)cc1 [Example 2, 5-chloro-6-(p-tolyl)-1,3-dihydropyrrolo[2,3-b]quinolin-2-one]",37.9
3,"Cc1cc(F)ccc1-c1ccc2nc3[nH]c(=O)[nH]c3cc2c1 [Example 4, 7-(4-fluoro-2-methylphenyl)-1,3-dihydro-2H-imidazo[4,5-b]quinolin-2-one]",1.7
4,"O=c1[nH]c2cc3cc(-c4ccc(F)cc4C(F)(F)F)ccc3nc2[nH]1 [Example 5, 7-(4-fluoro-2-(trifluoromethylphenyl))-1,3-dihydro-2H-imidazo[4,5-b]quinolin-2-one]",2.8
5,"COc1cc(F)ccc1-c1ccc2nc3[nH]c(=O)[nH]c3cc2c1 [Example 6, 7-(4-fluoro-2-methoxyphenyl)-1,3-dihydro-2H-imidazo[4,5-b]quinolin-2-one]",3.6
6,"COc1ccc(-c2ccc3nc4[nH]c(=O)[nH]c4cc3c2)c(Cl)n1 [Example 7, 7-(2-chloro-6-methoxypyridin-3-yl)-1,3-dihydro-2H-imidazo[4,5-b]quinolin-2-one]",0.4
7,"COc1cc(Cl)c(-c2ccc3nc4[nH]c(=O)[nH]c4cc3c2)cn1 [Example 8, 7-(4-chloro-6-methoxypyridin-3-yl)-1,3-dihydro-2H-imidazo[4,5-b]quinolin-2-one]",2.1
8,"O=c1[nH]c2cc3cc(-c4ccc(F)cc4)ccc3nc2[nH]1 [Example 9, 7-(4-fluorophenyl)-1,3-dihydro-2H-imidazo[4,5-b]quinolin-2-one]",1.7
9,"O=c1[nH]c2cc3cc(-c4ncc(F)cc4Cl)ccc3nc2[nH]1 [Example 10, 7-(3-chloro-5-fluoropyridin-2-yl)-1,3-dihydro-2H-imidazo[4,5-b]quinolin-2-one]",1.8
10,"O=c1[nH]c2cc3cc(-c4cnn(C(F)F)c4)ccc3nc2[nH]1 [Example 11, 7-(1-(difluoromethyl)-1H-pyrazol-4-yl)-1,3-dihydro-2H-imidazo[4,5-b]quinolin-2-one]",0.8
11,"O=c1[nH]c2cc3cc(-c4cn(C(F)F)nc4Cl)ccc3nc2[nH]1 [Example 12, 7-(3-chloro-1-(difluoromethyl)-1H-pyrazol-4-yl)-1,3-dihydro-2H-imidazo[4,5-b]quinolin-2-one]",0.3
12,"O=c1[nH]c2cc3cc(-c4c(Cl)cnn4C(F)F)ccc3nc2[nH]1 [Example 16, 7-(4-chloro-1-(difluoromethyl)-1H-pyrazol-5-yl)-1,3-dihydro-2H-imidazo[4,5-b]quinolin-2-one]",1.6
13,"O=c1[nH]c2cc3cc(-c4ccc(Cl)nc4Cl)ccc3nc2[nH]1 [Example 18, 7-(2,6-dichloropyridin-3-yl)-1,3-dihydro-2H-imidazo[4,5-b]quinolin-2-one]",0.6
14,"Nc1ccc(-c2ccc3nc4[nH]c(=O)[nH]c4cc3c2)c(Cl)n1 [Example 19, 7-(6-amino-2-chloropyridin-3-yl)-1,3-dihydro-2H-imidazo[4,5-b]quinolin-2-one]",1.7
15,"O=c1[nH]c2cc3c(nc2[nH]1)CCN(c1ccccc1)C3 [Example 20, 7-phenyl-1,3,5,6,7,8-hexahydro-2H-imidazo[4,5-b][1,6]naphthyridin-2-one]",4.5
16,"Cc1ccc(-c2ccc3nc4[nH]c(=O)[nH]c4cc3c2)c(Cl)c1 [Example 25, 7-(2-chloro-4-methylophenyl)-1,3-dihydro-2H-imidazo[4,5-b]quinolin-2-one]",2.9
17,"Nc1cc(-c2ccc3nc4[nH]c(=O)[nH]c4cc3c2)ccn1 [Example 26, 7-(2-aminopyridin-4-yl)-1,3-dihydro-2H-imidazo[4,5-b]quinolin-2-one]",74.6
18,"O=c1[nH]c2cc3cc(-c4cnn(C(F)(F)F)c4)ccc3nc2[nH]1 [Example 29, 7-(1-(trifluoromethyl)-1H-pyrazol-4-yl)-1,3-dihydro-2H-imidazo[4,5-b]quinolin-2-one]",6.6
19,"O=c1[nH]c2cc3cc(-c4cn(C(F)F)nc4C(F)(F)F)ccc3nc2[nH]1 [Example 31, 7-(1-(difluoromethyl)-3-(trifluoromethyl)-1H-pyrazol-4-yl)-1,3-dihydro-2H-imidazo[4,5-b]quinolin-2-one]",2.5
20,"O=c1[nH]c2cc3cc(-c4c(Cl)ncn4C(F)F)ccc3nc2[nH]1 [Example 38, 7-(4-chloro-1-(difluoromethyl)-1H-imidazol-5-yl)-1,3-dihydro-2H-imidazo[4,5-b]quinolin-2-one]",4.7
21,"O=c1[nH]c2cc3c(nc2[nH]1)CCN(c1ccc(C(F)F)cc1Cl)C3 [Example 46, 7-(2-chloro-4-(difluoromethyl)phenyl)-1,3,5,6,7,8-hexahydro-2H-imidazo[4,5-b][1,6]naphthyridin-2-one]",1.2

row,Compound,IC50 [nM]
1,"O=c1[nH]c2cc3c(nc2[nH]1)CCN(c1ccc(Cl)cc1Cl)C3 [Example 47, 7-(2,4-dichlorophenyl)-1,3,5,6,7,8-hexahydro-2H-imidazo[4,5-b][1,6]naphthyridin-2-one]",2.7
2,"O=c1[nH]c2cc3c(nc2[nH]1)CCN(c1cccc(F)c1)C3 [Example 49, 7-(3-fluorophenyl)-1,3,5,6,7,8-hexahydro-2H-imidazo[4,5-b][1,6]naphthyridin-2-one]",1.8
3,"O=c1[nH]c2cc3c(nc2[nH]1)CCN(c1cn(C(F)F)nc1Cl)C3 [Example 51, 7-(3-chloro-1-(difluoromethyl)-1H-pyrazol-4-yl)-1,3,5,6,7,8-hexahydro-2H-imidazo[4,5-b][1,6]naphthyridin-2-one]",74.9
4,"N#Cc1ccc(N2CCc3nc4[nH]c(=O)[nH]c4cc3C2)c(F)c1 [Example 52, 7-(2-fluoro-4-cyanophenyl)-1,3,5,6,7,8-hexahydro-2H-imidazo[4,5-b][1,6]naphthyridin-2-one]",4.1
5,"O=c1[nH]c2cc3c(nc2[nH]1)CCN(c1ccc(OC(F)(F)F)cc1Cl)C3 [Example 54, 7-(2-chloro-4-(trifluoromethoxy)phenyl)-1,3,5,6,7,8-hexahydro-2H-imidazo[4,5-b][1,6]naphthyridin-2-one]",198
6,"O=c1[nH]c2cc3c(nc2[nH]1)CCN(c1cccc(OC(F)(F)F)c1)C3 [Example 55, 7-(3-(trifluoromethoxy)phenyl)-1,3,5,6,7,8-hexahydro-2H-imidazo[4,5-b][1,6]naphthyridin-2-one]",15.6
7,"N#Cc1cnc(N2CCc3nc4[nH]c(=O)[nH]c4cc3C2)c(Cl)c1 [Example 56, 7-(3-chloro-5-cyanopyridin-2-yl)-1,3,5,6,7,8-hexahydro-2H-imidazo[4,5-b][1,6]naphthyridin-2-one]",10.6
8,"O=c1[nH]c2cc3c(nc2[nH]1)CCN(c1cccc(Cl)c1)C3 [Example 59, 7-(3-chlorophenyl)-1,3,5,6,7,8-hexahydro-2H-imidazo[4,5-b][1,6]naphthyridin-2-one]",2.3
9,"O=c1[nH]c2cc3c(Cl)c(-c4ccccc4)ccc3nc2[nH]1 [Example 65, 8-chloro-7-phenyl-1,3-dihydro-2H-imidazo[4,5-b]quinolin-2-one]",0.8
10,"O=c1[nH]c2cc3c(Cl)c(-c4ccc(F)cc4)ccc3nc2[nH]1 [Example 66, 8-chloro-7-(4-fluorophenyl)-1,3-dihydro-2H-imidazo[4,5-b]quinolin-2-one]",0.9
11,"O=c1[nH]c2cc3c(Cl)c(-c4ccc(C(F)F)cc4)ccc3nc2[nH]1 [Example 67, 8-chloro-7-(4-(difluoromethyl)phenyl)-1,3-dihydro-2H-imidazo[4,5-b]quinolin-2-one]",0.4
12,"Cc1ccc(-c2ccc3nc4[nH]c(=O)[nH]c4cc3c2F)cc1 [Example 68, 8-fluoro-7-(p-tolyl)-1,3-dihydro-2H-imidazo[4,5-b]quinolin-2-one]",2
13,"Cc1ccc(-c2cc3cc4[nH]c(=O)[nH]c4nc3cc2Cl)cc1 [Example 69, 6-chloro-7-(p-tolyl)-1,3-dihydro-2H-imidazo[4,5-b]quinolin-2-one]",9.7
14,"Cc1ccc(-c2ccc3nc4[nH]c(=O)[nH]c4cc3c2Cl)nc1 [Example 70, 8-chloro-7-(5-methylpyridin-2-yl)-1,3-dihydro-2H-imidazo[4,5-b]quinolin-2-one]",2.9
15,"O=c1[nH]c2cc3c(Cl)c(-c4ncc(F)cn4)ccc3nc2[nH]1 [Example 71, 8-chloro-7-(5-fluoropyrimidin-2-yl)-1,3-dihydro-2H-imidazo[4,5-b]quinolin-2-one]",8.2
16,"COc1ccc(-c2ccc3nc4[nH]c(=O)[nH]c4cc3c2Cl)cn1 [Example 72, 8-chloro-7-(6-methoxypyridin-3-yl)-1,3-dihydro-2H-imidazo[4,5-b]quinolin-2-one]",1
17,"O=c1[nH]c2cc3c(Cl)c(-c4ccc(Cl)nn4)ccc3nc2[nH]1 [Example 73, 8-chloro-7-(6-chloropyridazin-3-yl)-1,3-dihydro-2H-imidazo[4,5-b]quinolin-2-one]",1.6
18,"O=c1[nH]c2cc3c(Cl)c(-c4ccc(C(F)F)cn4)ccc3nc2[nH]1 [Example 74, 8-chloro-7-(5-(difluoromethyl)pyridin-2-yl)-1,3-dihydro-2H-imidazo[4,5-b]quinolin-2-one]",0.7
19,"N#Cc1ccc(-c2ccc3nc4[nH]c(=O)[nH]c4cc3c2Cl)cc1 [Example 75, 8-chloro-7-(4-cyanophenyl)-1,3-dihydro-2H-imidazo[4,5-b]quinolin-2-one]",0.5
20,"O=c1[nH]c2cc3c(Cl)c(N4CC5(CCC5)C4)ccc3nc2[nH]1 [Example 76, 8-chloro-7-(2-azaspiro[3.3]heptan-2-yl)-1,3-dihydro-2H-imidazo[4,5-b]quinolin-2-one]",2.3
21,"O=c1[nH]c2cc3c(OC(F)F)c(-c4ccc(F)cc4)ccc3nc2[nH]1 [Example 77, 8-(difluoromethoxy)-7-(4-fluorophenyl)-1,3-dihydro-2H-imidazo[4,5-b]quinolin-2-one]",4.4
